The values that follow come from ChEMBL document CHEMBL1201862, “PubChem BioAssay data set” (2004).

Each structure is given as a SMILES string.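 Cultured in 96-well plates, cells were exposed to test compound for 48 hours across five concentrations. Abbreviation: GI50, concentration required for 50% inhibition of growth.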 Activity calls are given as the source filed them. Cut-off read from the data, not from the text of the source: active = GI50 up to about 1.1 µM and inactive = higher.

Test in all cases: DTP human tumour cell line panel, 48 h
The test system of experiment [1] is HCT-15.
Experiment [2] concerns UACC-62.
In experiment [3] the test system is HOP-92.
Experiment [4] relates to OVCAR-4.
Experiment [5] relates to HCC 2998.
For experiment [6], the system named is LOX IMVI.
Experiment [7] has as its system SK-MEL-2.
The test system of experiment [8] is SF-268.
Experiment [9] concerns ACHN.
Experiment [10] relates to CAKI-1.
For experiment [11], the system named is RPMI-8226.
For experiment [12], the system named is HCT-116.
Experiment [13] relates to NCI-H522.
Experiment [14] deals with NCI/ADR-RES.
Experiment [15] relates to OVCAR-5.
The subject of experiment [16] is NCI-H226.
The subject of experiment [17] is Malme-3M.
Experiment [18] deals with HOP-62.
For experiment [19], the system named is DLD-1.
In experiment [20] the test system is HOP-18.

For the compound `CCOC(=O)C(NC(=O)CC)(Nc1ccccc1OC)C(F)(F)F` (centres undefined), the concentration for 50% growth inhibition (GI50) (in general, the concentration giving 50% growth inhibition) in [1] is above 100 µM; in experiment [2] it was > 100 µM (inactive); in experiment [3], > 100 µM (inactive); in experiment [4] it was > 100 µM (inactive); in [5], > 100 µM (inactive); in experiment [6], > 100 µM (inactive). For the same compound, the GI50 in experiment [7] was > 100 µM (inactive); in [8] it was > 100 µM (inactive); in experiment [9] it was > 100 µM (inactive); in experiment [10], 13 µM (inactive); in experiment [11] it was > 100 µM (inactive); in experiment [12] it was > 100 µM (inactive). Further, the GI50 in experiment [13], in experiment [14] and in experiment [15] was > 100 µM (inactive) each time.
On to `COc1nc(Cl)c(Cl)c(Cl)n1.COc1nc(Cl)nc(Cl)c1Cl`, for which the 50% growth inhibitory concentration (GI50) in experiment [1] is 2.19 µM; in experiment [2] it was 8.93 µM (inactive); in [3], 2.31 µM (inactive); in experiment [4] it was 6.07 µM (inactive); in [5] it was 0.252 µM (active); in [6], 2.66 µM (inactive). In addition, the GI50 was 7.62 µM (inactive) in experiment [7]; 6.18 µM (inactive) in [8]; 7.59 µM (inactive) in experiment [9]; 0.0254 µM (active) in experiment [10]; 42.5 µM (inactive) in [16]; 0.938 µM (active) in experiment [11]. Further, the GI50 in experiment [17] is 10.6 µM (inactive); in experiment [12], 8.2 µM (inactive); in [13] it was 0.675 µM (active); in experiment [18] it was 2.92 µM (inactive); in experiment [14], 7.87 µM (inactive); in experiment [15], 30.9 µM (inactive).
Take `OCCNCN(CNCCO)c1nc(N(CNCCO)CNCCO)nc(N(CNCCO)CNCCO)n1`: the GI50 was 0.0556 µM in experiment [1]; 0.0743 µM (active) in [3]; 0.0715 µM (active) in experiment [4]; 0.04 µM (active) in experiment [19]; 0.0916 µM (active) in [6]; 0.0838 µM (active) in experiment [7]. In addition, the GI50 in experiment [8] is 0.0578 µM (active); in experiment [9], 0.04 µM (active); in [16], 0.0802 µM (active); in experiment [17], 0.04 µM (active); in experiment [20], 0.0841 µM (active); in experiment [13], 0.0653 µM (active). The figures for the concentration for 50% growth inhibition (GI50) in experiment [18] and in experiment [15] were 0.0687 µM (active) and 0.146 µM (active), respectively.
Consider `CCOC(=O)c1csc(NC(=O)CCN(CC)CC)n1`, for which the 50% growth inhibitory concentration (GI50) is 27.6 µM in experiment [1]; 45 µM (inactive) in experiment [2]; 24.5 µM (inactive) in [3]; 57.4 µM (inactive) in [4]; 49.8 µM (inactive) in [5]; 33.2 µM (inactive) in experiment [6]. In addition, the GI50 was 55.7 µM (inactive) in [7]; 42.9 µM (inactive) in [9]; 20.5 µM (inactive) in experiment [10]; 30.3 µM (inactive) in experiment [16]; 0.0817 µM (active) in experiment [11]; > 100 µM (inactive) in experiment [18]. The GI50 in experiment [14] was 40.2 µM (inactive); in [15] it was > 100 µM (inactive).
Consider `Oc1cc(CN2COc3ccccc32)c(O)cc1CNC1CCCCC1`, for which the GI50 in [1] is 20.1 µM; in [2] it was 23.9 µM (inactive); in [3], 28.2 µM (inactive); in experiment [4] it was 20.3 µM (inactive); in experiment [6] it was 16.6 µM (inactive); in experiment [7] it was 23.3 µM (inactive). Moreover, the GI50 in experiment [8] is 16.2 µM (inactive); in [9], 29.2 µM (inactive); in experiment [10] it was 28.3 µM (inactive); in experiment [11] it was 23.8 µM (inactive); in [17], 18.9 µM (inactive); in experiment [12], 18.3 µM (inactive). The GI50 in experiment [13] was 14.1 µM (inactive); in [18], 71.1 µM (inactive); in [14], 37.2 µM (inactive); in experiment [15], > 100 µM (inactive).
On to `O=C(O[C@@H](/C=C/c1ccccc1)P1(=O)N(Cc2ccccc2)[C@H]2CCCC[C@@H]2N1Cc1ccccc1)c1ccccc1`, for which the GI50 was 3.28 µM in experiment [1]; 2.12 µM (inactive) in experiment [2]; 2.86 µM (inactive) in experiment [3]; 3.59 µM (inactive) in experiment [4]; 2.58 µM (inactive) in experiment [5]; 3.54 µM (inactive) in experiment [6]. The GI50 in experiment [7] is 1.85 µM (inactive); in [8] it was 5.5 µM (inactive); in [9] it was 2.32 µM (inactive); in experiment [10], 2.66 µM (inactive); in experiment [16], 2.79 µM (inactive); in experiment [11], 2.29 µM (inactive). In addition, the GI50 was 4.2 µM (inactive) in experiment [17]; 3.02 µM (inactive) in experiment [12]; 3.55 µM (inactive) in experiment [13]; 2.82 µM (inactive) in [18]; 3.52 µM (inactive) in experiment [14]; 3.86 µM (inactive) in experiment [15].
Consider `CC(=O)OC1COC(Nn2c(=O)[nH]c3ccccc3c2=O)C(OC(C)=O)C1OC(C)=O` (centres undefined), for which the concentration for 50% growth inhibition (GI50) was above 100 µM in [1]; > 100 µM (inactive) in experiment [2]; > 100 µM (inactive) in experiment [3]; > 100 µM (inactive) in [6]; > 100 µM (inactive) in experiment [7]; > 100 µM (inactive) in experiment [8]. Besides, the GI50 in [9] is > 100 µM (inactive); in experiment [10], > 100 µM (inactive); in experiment [16], 51.9 µM (inactive); in [11] it was > 100 µM (inactive); in experiment [12], > 100 µM (inactive); in experiment [18], > 100 µM (inactive). The GI50 in experiment [14] is 17.9 µM (inactive); in [15], > 100 µM (inactive).
As for `COc1cc2c(cc1OC)C(C)N(C)c1c-2c(OC(C)=O)cc2cc(OC)c(OC)cc12` (centres undefined), the 50% growth inhibitory concentration (GI50) was 15 µM in [1]; 12.5 µM (inactive) in experiment [2]; 5.61 µM (inactive) in experiment [4]; 15.6 µM (inactive) in experiment [5]; 13.2 µM (inactive) in experiment [6]; 13.5 µM (inactive) in experiment [7]. Also, the GI50 in experiment [8] is 26.9 µM (inactive); in experiment [9], 17.3 µM (inactive); in experiment [10] it was 16.1 µM (inactive); in [16], 2.33 µM (inactive); in experiment [11] it was 8.69 µM (inactive); in [17] it was 3.72 µM (inactive). The GI50 was 13.9 µM (inactive) in experiment [12]; 3.34 µM (inactive) in experiment [13]; 21.3 µM (inactive) in experiment [18]; 7.48 µM (inactive) in [14]; 36.4 µM (inactive) in [15].
`COc1ccc(/C=N/N=C(N)N)c(C(=O)O)c1OC`: the GI50 is above 100 µM in [1]; > 100 µM (inactive) in experiment [2]; > 100 µM (inactive) in experiment [4]; > 100 µM (inactive) in experiment [8]; > 100 µM (inactive) in experiment [9]; > 100 µM (inactive) in experiment [10]. For the same compound, the GI50 in experiment [11], in [12], in experiment [20] and in experiment [13] was > 100 µM (inactive) each time.
As to `Nc1nc(SCCNC(=O)CCc2ccc(O)c(I)c2)nc2c1ncn2C1OC(CO)C(O)C1O` (centres undefined), the GI50 was above 100 µM in experiment [1]; > 100 µM (inactive) in experiment [2]; > 100 µM (inactive) in experiment [3]; > 100 µM (inactive) in [4]; > 100 µM (inactive) in [5]; > 100 µM (inactive) in experiment [19]. Also, the GI50 in experiment [7], in experiment [8], in experiment [9], in experiment [16], in experiment [17] and in experiment [12] was > 100 µM (inactive) throughout. Also, the GI50 in experiment [13], in [18] and in [15] was > 100 µM (inactive) in each case.
In the case of `C/N=c1/ssc(=S)n1C(C)C`, the GI50 in [2] was 12 µM (inactive); in [3], 14.3 µM (inactive); in experiment [5] it was 13.9 µM (inactive); in experiment [7] it was 42 µM (inactive); in experiment [8], 33.8 µM (inactive); in [9], 20.8 µM (inactive). The GI50 in experiment [10] was 21.7 µM (inactive); in [16] it was 56.2 µM (inactive); in experiment [11], 11.6 µM (inactive); in [12] it was 19.7 µM (inactive); in experiment [18] it was 18.9 µM (inactive).
Turning to `COc1c2c(cc3c1-c1c(cc4c(c1OC)OCO4)C1OC3C(C)C1C)OCO2.COc1cc2c(c(OC)c1OC)-c1c(cc3c(c1OC)OCO3)C1OC2C(C)C1C` (centres undefined), the concentration for 50% growth inhibition (GI50) is 67.9 µM in experiment [1]; 73.8 µM (inactive) in experiment [2]; > 100 µM (inactive) in [3]; > 100 µM (inactive) in [4]; 56.4 µM (inactive) in experiment [5]; 68.4 µM (inactive) in experiment [6]. Also, the GI50 in experiment [7] was > 100 µM (inactive); in [8] it was > 100 µM (inactive); in experiment [9], > 100 µM (inactive); in [10] it was > 100 µM (inactive); in experiment [16], > 100 µM (inactive); in experiment [11], 33 µM (inactive). Besides, the GI50 in experiment [17] is > 100 µM (inactive); in [12] it was 87.3 µM (inactive); in [13] it was 61.4 µM (inactive); in experiment [18], > 100 µM (inactive); in [15], > 100 µM (inactive).
As to `O=c1c(Cc2c(O)oc3cc(O)ccc3c2=O)c(O)oc2cc(O)ccc12`, the GI50 is above 100 µM in experiment [1]; > 100 µM (inactive) in experiment [2]; > 100 µM (inactive) in experiment [3]; 56.8 µM (inactive) in [4]; > 100 µM (inactive) in experiment [5]; > 100 µM (inactive) in experiment [6]. In addition, the GI50 in experiment [7], in [8], in experiment [10], in [16], in [17] and in [12] was > 100 µM (inactive) each time. Moreover, the GI50 in experiment [18], in [14] and in [15] was > 100 µM (inactive) throughout.
